Values quoted from earlier work as cited in patent US20240315962A1, “EXTENDED RELEASE COMPOSITIONS COMPRISING PYRIDOSTIGMINE” (priority 2020, published 2024).

CN(C)C(=O)Oc1ccc[n+](C)c1 [pyridostigmine]
bioavailability (NDA #020414): 10-20% | elimination half-life (oral): 3 to 5 h | time-to-maximum peak plasma concentration (oral): 1 to 2 h
